Patent publication US20220062240A1, “METHODS OF TREATING CANCER USING A CLK INHIBITOR” (BioSplice Therapeutics, Inc., priority 2018, published 2022)
Like-named read-outs stand apart in the source and are kept apart here. Blank lines part the entries; values can stand above or below the compound they belong to.

Tests used:
[1] = tested on: prostate cancer (5 cell lines); experiment: CellTiter-Glo Viability Assay, prostate cancer; assay type: cell-based; conditions: Homo sapiens
[2] = tested on: haematopoietic & lymphoid tumors (13 cell lines); experiment: CellTiter-Glo Viability Assay, haematopoietic & lymphoid tumors; assay type: cell-based; conditions: Homo sapiens, inhibition of cancer cell proliferation
[3] = tested on: ovarian cancer (4 cell lines); experiment: CellTiter-Glo Viability Assay, ovarian cancer; assay type: cell-based; conditions: Homo sapiens, inhibition of cancer cell proliferation
CLK2 = target: T1, CLK2 (Homo sapiens, UniProt P49760); experiment: CLK2 kinase activity assay (Z-lyte, Ser/Thr 6 peptide); assay type: biochemical; conditions: recombinant CLK2 kinase, ATP 60 μM; read-out: EC50
T1 construct: purchased Thermo Fisher (Life Technologies), Z'-LYTE Kinase Assay Kits
Experimental: All reactions were performed in duplicate.

CAMA1 = experiment: CellTiter-Glo Viability Assay, breast cancer; assay type: cell-based; conditions: Homo sapiens, CAMA-1, 96 h; CAMA1, breast cancer, four days; read-out: EC50
BT-549 = experiment: CellTiter-Glo Viability Assay, breast cancer; assay type: cell-based; conditions: Homo sapiens, 96 h; BT-549, breast cancer, four days; read-out: EC50
HCC1599 = experiment: CellTiter-Glo Viability Assay, breast cancer; assay type: cell-based; conditions: Homo sapiens, 96 h; HCC1599, breast cancer, four days; read-out: EC50
MCF7 = experiment: CellTiter-Glo Viability Assay, breast cancer; assay type: cell-based; conditions: Homo sapiens, 96 h; MCF7, breast cancer, four days; read-out: EC50
ZR-75-1 = experiment: CellTiter-Glo Viability Assay, breast cancer; assay type: cell-based; conditions: Homo sapiens, 96 h; ZR-75-1, breast cancer, four days; read-out: EC50
MDA-MB-231-Luc = experiment: CellTiter-Glo Viability Assay, breast cancer; assay type: cell-based; conditions: Homo sapiens, 96 h; MDA-MB-231-Luc, breast cancer, four days; read-out: EC50
T47D = experiment: CellTiter-Glo Viability Assay, breast cancer; assay type: cell-based; conditions: Homo sapiens, 96 h, breast cancer, four days, read-out: EC50
DU4475 = experiment: CellTiter-Glo Viability Assay, breast cancer; assay type: cell-based; conditions: Homo sapiens, DU-4475, 96 h; DU4475, breast cancer, four days; read-out: EC50
all 50 cell lines = experiment: CellTiter-Glo Viability Assay, average across all cell lines; assay type: cell-based; conditions: Homo sapiens; across all 50 cell lines; read-out: average EC50 for inhibition of cancer cell proliferation
Procedure, shortened: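 Human cancer cell lines from breast, colorectal, haematopoietic/lymphoid, liver, lung, ovarian, pancreatic and prostate tumours were seeded at 300-3,000 cells/well and exposed to compound in duplicate for four days at 37° C, 5% CO2. Viable cells were measured by ATP luminescence; EC50 values came from dose-response curves.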

[4] = tested on: colorectal cancer (6 cell lines); experiment: CellTiter-Glo Viability Assay, colorectal cancer; assay type: cell-based; conditions: Homo sapiens, inhibition of cancer cell proliferation
[5] = tested on: lung cancer (4 cell lines); experiment: CellTiter-Glo Viability Assay, lung cancer; assay type: cell-based; conditions: Homo sapiens, inhibition of cancer cell proliferation
[6] = tested on: liver cancer (3 cell lines); experiment: CellTiter-Glo Viability Assay, liver cancer; assay type: cell-based; conditions: Homo sapiens, inhibition of cancer cell proliferation
CLK3 = CLK3 (Homo sapiens, UniProt P49761); experiment: CLK3 kinase activity assay (Z-lyte, Ser/Thr 18 peptide)
[7] = tested on: pancreatic cancer (8 cell lines); experiment: CellTiter-Glo Viability Assay, pancreatic cancer; assay type: cell-based; conditions: Homo sapiens, inhibition of cancer cell proliferation
[8] = DU-145, read-out: Prostate cancer EC50 Du-145
[9] = PC-3, PC3 cell line, inhibition of cancer cell proliferation, read-out: Prostate cancer EC50 PC3
[10] = 22Rv1 cell line, inhibition of cancer cell proliferation, read-out: Prostate cancer EC50 22Rv1
[11] = LNCap clone FGC cell line, inhibition of cancer cell proliferation, read-out: Prostate cancer EC50 LNCap clone FGC
[12] = VCaP (Sigma) cell line, inhibition of cancer cell proliferation, read-out: Prostate cancer EC50 VCaP (Sigma)
[13] = DND41, DND-41 cell line, read-out: Haematopoietic & Lymphoid tumors, EC50 (μM) DND-41
[14] = MV4-11, MV-4-11 cell line, read-out: Haematopoietic & Lymphoid tumors, EC50 (μM) MV-4-11
[15] = Rec1, REC-1 cell line, read-out: Haematopoietic & Lymphoid tumors, EC50 (μM) REC-1
[16] = SU-DHL-4, SUDHL4 cell line, read-out: Haematopoietic & Lymphoid tumors, EC50 (μM) SUDHL4
[17] = HL-60 cell line, read-out: Haematopoietic & Lymphoid tumors, EC50 (μM) HL-60
[18] = JM1 cell line, read-out: Haematopoietic & Lymphoid tumors, EC50 (μM) JM1
[19] = JURKAT, Clone E6-1 cell line, read-out: Haematopoietic & Lymphoid tumors, EC50 (μM) JURKAT, Clone E6-1
[20] = JeKo-1 cell line, read-out: Haematopoietic & Lymphoid tumors, EC50 (μM) JeKo-1
[21] = KASUMI-1 cell line, read-out: Haematopoietic & Lymphoid tumors, EC50 (μM) KASUMI-1
[22] = Loucy cell line, read-out: Haematopoietic & Lymphoid tumors, EC50 (μM) Loucy
[23] = MOLT-4 cell line, read-out: Haematopoietic & Lymphoid tumors, EC50 (μM) MOLT-4
[24] = TF-1 cell line, read-out: Haematopoietic & Lymphoid tumors, EC50 (μM) TF-1
[25] = TOLEDO cell line, read-out: Haematopoietic & Lymphoid tumors, EC50 (μM) TOLEDO
[26] = PA-1, PA1 cell line, read-out: Ovarian cancer, EC50 (μM) PA1
[27] = TOV112D, TOV-112D cell line, read-out: Ovarian cancer, EC50 (μM) TOV-112D
[28] = OV-90 cell line, read-out: Ovarian cancer, EC50 (μM) OV-90
[29] = OVCAR-3 cell line, read-out: Ovarian cancer, EC50 (μM) OVCAR-3
[30] = HCT-116, HCT116 cell line, read-out: Colorectal cancer, EC50 (μM) HCT116
[31] = HT-29, HT29 cell line, read-out: Colorectal cancer, EC50 (μM) HT29
[32] = SW-620, SW620 cell line, read-out: Colorectal cancer, EC50 (μM) SW620
[33] = DLD-1 cell line, read-out: Colorectal cancer, EC50 (μM) DLD-1
[34] = SW48 cell line, read-out: Colorectal cancer, EC50 (μM) SW48
[35] = SW480 cell line, read-out: Colorectal cancer, EC50 (μM) SW480
[36] = A-427, A427 cell line, read-out: Lung cancer, EC50 (μM) A427
[37] = HCC78, HCC-78 cell line, read-out: Lung cancer, EC50 (μM) HCC-78
[38] = NCI-H460 cell line, read-out: Lung cancer, EC50 (μM) NCI-H460
[39] = NCI-H522 cell line, read-out: Lung cancer, EC50 (μM) NCI-H522
[40] = SNU-398, SNU398 cell line, read-out: Liver cancer, EC50 SNU398
[41] = HEPG2 cell line, read-out: Liver cancer, EC50 HEPG2
[42] = PLC/PRF/5 cell line, read-out: Liver cancer, EC50 PLC/PRF/5
[43] = BXPC-3, BxPC3 cell line, read-out: Pancreatic cancer, EC50 BxPC3
[44] = CAPAN-1, Capan1 cell line, read-out: Pancreatic cancer, EC50 Capan1
[45] = Capan-2, Capan2 cell line, read-out: Pancreatic cancer, EC50 Capan2
[46] = MIA PaCa-2 cell line, read-out: Pancreatic cancer, EC50 MIA PaCa-2
[47] = PANC 05.04 cell line, read-out: Pancreatic cancer, EC50 PANC 05.04
[48] = PANC-1 cell line, read-out: Pancreatic cancer, EC50 PANC-1
[49] = UPAFII cell line, read-out: Pancreatic cancer, EC50 UPAFII

T1 sequence (P49760 whole entry): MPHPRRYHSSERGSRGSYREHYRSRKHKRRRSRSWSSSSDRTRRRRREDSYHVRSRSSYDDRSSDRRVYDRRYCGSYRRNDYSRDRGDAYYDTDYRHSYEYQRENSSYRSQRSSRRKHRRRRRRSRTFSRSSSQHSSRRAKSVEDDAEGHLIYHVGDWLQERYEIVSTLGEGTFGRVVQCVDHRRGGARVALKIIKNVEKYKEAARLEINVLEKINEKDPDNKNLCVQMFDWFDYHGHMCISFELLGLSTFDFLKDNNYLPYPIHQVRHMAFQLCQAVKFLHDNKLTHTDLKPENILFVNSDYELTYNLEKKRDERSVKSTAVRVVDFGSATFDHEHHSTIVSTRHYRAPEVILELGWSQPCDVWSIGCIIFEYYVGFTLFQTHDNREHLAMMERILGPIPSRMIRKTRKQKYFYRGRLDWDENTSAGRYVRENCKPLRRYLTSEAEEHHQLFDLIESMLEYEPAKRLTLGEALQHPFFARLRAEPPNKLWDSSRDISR
CLK3, sequence (P49761 whole entry): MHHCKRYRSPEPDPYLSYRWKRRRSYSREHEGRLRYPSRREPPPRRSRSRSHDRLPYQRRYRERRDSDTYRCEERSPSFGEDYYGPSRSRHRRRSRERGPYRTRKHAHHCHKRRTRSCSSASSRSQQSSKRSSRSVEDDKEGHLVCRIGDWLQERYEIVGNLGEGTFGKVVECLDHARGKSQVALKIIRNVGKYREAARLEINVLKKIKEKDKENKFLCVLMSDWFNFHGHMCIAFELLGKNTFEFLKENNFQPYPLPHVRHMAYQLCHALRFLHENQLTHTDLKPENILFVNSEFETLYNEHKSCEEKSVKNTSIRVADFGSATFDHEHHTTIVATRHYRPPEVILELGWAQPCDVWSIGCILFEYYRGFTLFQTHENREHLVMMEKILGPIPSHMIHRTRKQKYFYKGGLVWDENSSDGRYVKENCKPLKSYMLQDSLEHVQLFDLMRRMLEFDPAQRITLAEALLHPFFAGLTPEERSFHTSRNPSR

EC50 [1, 8]: 429 nM
EC50 [1, 9]: 287 nM
EC50 [1, 10]: 329 nM
EC50 [1, 11]: 444 nM
EC50 [1, 12]: 497 nM
EC50 [2, 13]: 0.213 µM
EC50 [2, 14]: 0.025 µM
EC50 [2, 15]: 0.106 µM
EC50 [2, 16]: 0.407 µM
EC50 [2, 17]: 0.235 µM
EC50 [2, 18]: 0.12 µM
EC50 [2, 19]: 0.305 µM
EC50 [2, 20]: 0.136 µM
EC50 [2, 21]: 0.206 µM
EC50 [2, 22]: 0.374 µM
EC50 [2, 23]: 0.186 µM
EC50 [2, 24]: 0.391 µM
EC50 [2, 25]: 0.13 µM
EC50 [3, 26]: 0.218 µM
EC50 [3, 27]: 0.228 µM
EC50 [3, 28]: 0.838 µM
EC50 [3, 29]: 0.315 µM
EC50 (CLK2): 3.4 nM
EC50 (CAMA1): 429 nM
EC50 (BT-549): 273 nM
EC50 (HCC1599): 165 nM
EC50 (MCF7): 505 nM
EC50 (ZR-75-1): 441 nM
EC50 (MDA-MB-231-Luc): 338 nM
EC50 (T47D): 471 nM
EC50 (DU4475): 152 nM
EC50 [4, 30]: 0.147 µM
EC50 [4, 31]: 0.433 µM
EC50 [4, 32]: 0.135 µM
EC50 [4, 33]: 0.199 µM
EC50 [4, 34]: 0.12 µM
EC50 [4, 35]: 0.132 µM
EC50 [5, 36]: 0.216 µM
EC50 [5, 37]: 0.396 µM
EC50 [5, 38]: 0.329 µM
EC50 [5, 39]: 0.216 µM
EC50 [6, 40]: 112 nM
EC50 [6, 41]: 470 nM
EC50 [6, 42]: 466 nM
EC50 (CLK3): 15.4 nM
EC50 [7, 43]: 848 nM
EC50 [7, 44]: 372 nM
EC50 [7, 45]: 620 nM
EC50 [7, 46]: 261 nM
EC50 [7, 47]: 564 nM
EC50 [7, 48]: 600 nM
EC50 [7, 49]: 348 nM
SMILES: [2H]c1c([2H])c([2H])c(/C=C/C(=O)Nc2cc3cc(-c4cncn4C)ccc3cn2)c([2H])c1[2H] [Compound 81]
EC50 (all 50 cell lines): 324 nM

EC50 [1, 8]: 1160 nM
EC50 [1, 9]: 473 nM
EC50 [1, 10]: 563 nM
EC50 [1, 11]: 2820 nM
EC50 [1, 12]: 2460 nM
EC50 [2, 13]: 0.176 µM
EC50 [2, 14]: 0.046 µM
EC50 [2, 15]: 7.2 µM
EC50 [2, 16]: 0.477 µM
EC50 [2, 17]: 1.02 µM
EC50 [2, 18]: 0.222 µM
EC50 [2, 19]: 2.44 µM
EC50 [2, 20]: 0.088 µM
EC50 [2, 21]: 0.804 µM
EC50 [2, 22]: 0.15 µM
EC50 [2, 23]: 2.02 µM
EC50 [2, 24]: 4.7 µM
EC50 [2, 25]: 0.249 µM
EC50 [3, 26]: 2.29 µM
EC50 [3, 27]: 0.446 µM
EC50 [3, 28]: 1.6 µM
EC50 [3, 29]: 0.145 µM
EC50 (CLK2): 9.7 nM
EC50 (CAMA1): 340 nM
EC50 (BT-549): 761 nM
EC50 (HCC1599): 209 nM
EC50 (MCF7): 6390 nM
EC50 (ZR-75-1): 1280 nM
EC50 (MDA-MB-231-Luc): 1500 nM
EC50 (T47D): 455 nM
EC50 (DU4475): 3130 nM
EC50 [4, 30]: 0.749 µM
EC50 [4, 31]: 8.88 µM
EC50 [4, 32]: 0.385 µM
EC50 [4, 33]: 3.57 µM
EC50 [4, 34]: 0.861 µM
EC50 [4, 35]: 0.305 µM
EC50 [5, 36]: 0.23 µM
EC50 [5, 37]: 0.961 µM
EC50 [5, 38]: > 10 µM
EC50 [5, 39]: 0.327 µM
EC50 [6, 40]: 79 nM
EC50 [6, 41]: 2090 nM
EC50 [6, 42]: > 10000 nM
EC50 (CLK3): 27.5 nM
EC50 [7, 43]: 3540 nM
EC50 [7, 44]: 1810 nM
EC50 [7, 45]: 3000 nM
EC50 [7, 46]: 220 nM
EC50 [7, 47]: 2120 nM
EC50 [7, 48]: > 10000 nM
EC50 [7, 49]: 1290 nM
SMILES: CS(=O)(=O)NCc1cc(F)cc(-c2nccc3[nH]c(-c4n[nH]c5ccc(-c6cncc(NC(=O)C7CCC7)c6)cc45)cc23)c1 [Compound 53]
EC50 (all 50 cell lines): 2120 nM
